# Like-named read-outs stand apart in the source and are kept apart here.
# Experiments:
# E. coli (MC 1061) = format: cell-based
# AsbA [1] = target: T1, AsbA (Bacillus anthracis, UniProt A0A0F7RJ52); format: biochemical, B. anthracis; settings: read-out: IC50 against AsbA
# S. typhimurium = format: cell-based, Salmonella typhimurium
# S. flexneri (BS103) = format: cell-based, Shigella flexneri
# MRSA (USA 300) = format: cell-based, S. aureus
# [2] = tested on: B. anthracis (Sterne 34F2); format: cell-based
# SbnE [3] = target: T2, SbnE (Staphylococcus aureus, UniProt Q2G1M9); format: biochemical, S. aureus; settings: read-out: IC50 against SbnE
# T2 sequence (Q2G1M9 1-578): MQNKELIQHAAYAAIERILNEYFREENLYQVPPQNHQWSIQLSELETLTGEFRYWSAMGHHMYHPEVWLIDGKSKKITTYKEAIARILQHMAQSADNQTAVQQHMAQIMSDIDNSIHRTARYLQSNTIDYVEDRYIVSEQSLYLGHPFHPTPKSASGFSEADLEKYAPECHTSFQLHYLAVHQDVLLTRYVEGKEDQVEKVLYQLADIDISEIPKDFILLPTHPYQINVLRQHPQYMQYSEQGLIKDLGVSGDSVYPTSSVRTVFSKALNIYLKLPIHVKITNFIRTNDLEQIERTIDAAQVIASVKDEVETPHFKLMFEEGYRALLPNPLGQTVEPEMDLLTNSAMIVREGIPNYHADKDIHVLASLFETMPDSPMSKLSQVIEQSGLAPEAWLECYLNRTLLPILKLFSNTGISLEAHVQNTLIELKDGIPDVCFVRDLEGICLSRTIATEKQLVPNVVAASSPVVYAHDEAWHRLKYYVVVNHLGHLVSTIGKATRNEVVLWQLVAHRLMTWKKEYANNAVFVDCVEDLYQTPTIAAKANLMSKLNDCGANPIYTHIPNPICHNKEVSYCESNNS
# AsbB = AsbB (Bacillus anthracis, UniProt Q81RQ8); format: biochemical, B. anthracis; settings: for IC50: read-out: IC50 against AsbB
# SbnE [4] = target: T2, SbnE; format: biochemical, S. aureus
# AsbA [5] = target: T1, AsbA; format: biochemical, B. anthracis
# S. aureus (Newman) = format: cell-based
# AsbB, sequence (Q81RQ8 whole entry, looked up): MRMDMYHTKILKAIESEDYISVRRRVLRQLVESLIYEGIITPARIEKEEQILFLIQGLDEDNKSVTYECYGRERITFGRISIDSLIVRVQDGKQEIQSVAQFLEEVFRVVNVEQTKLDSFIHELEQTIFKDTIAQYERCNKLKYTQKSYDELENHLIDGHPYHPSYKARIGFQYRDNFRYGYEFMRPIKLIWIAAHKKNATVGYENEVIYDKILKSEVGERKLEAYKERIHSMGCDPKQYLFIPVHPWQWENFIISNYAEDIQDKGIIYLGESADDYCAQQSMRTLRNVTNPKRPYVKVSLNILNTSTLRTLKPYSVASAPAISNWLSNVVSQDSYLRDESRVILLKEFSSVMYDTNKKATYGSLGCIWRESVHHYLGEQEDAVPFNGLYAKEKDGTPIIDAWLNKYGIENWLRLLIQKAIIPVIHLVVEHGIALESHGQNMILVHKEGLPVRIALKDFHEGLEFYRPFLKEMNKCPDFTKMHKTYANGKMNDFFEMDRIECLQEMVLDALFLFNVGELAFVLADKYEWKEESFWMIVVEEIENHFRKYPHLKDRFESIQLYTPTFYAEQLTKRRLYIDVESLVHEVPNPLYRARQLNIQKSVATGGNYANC
# T1 sequence (A0A0F7RJ52 whole entry, looked up): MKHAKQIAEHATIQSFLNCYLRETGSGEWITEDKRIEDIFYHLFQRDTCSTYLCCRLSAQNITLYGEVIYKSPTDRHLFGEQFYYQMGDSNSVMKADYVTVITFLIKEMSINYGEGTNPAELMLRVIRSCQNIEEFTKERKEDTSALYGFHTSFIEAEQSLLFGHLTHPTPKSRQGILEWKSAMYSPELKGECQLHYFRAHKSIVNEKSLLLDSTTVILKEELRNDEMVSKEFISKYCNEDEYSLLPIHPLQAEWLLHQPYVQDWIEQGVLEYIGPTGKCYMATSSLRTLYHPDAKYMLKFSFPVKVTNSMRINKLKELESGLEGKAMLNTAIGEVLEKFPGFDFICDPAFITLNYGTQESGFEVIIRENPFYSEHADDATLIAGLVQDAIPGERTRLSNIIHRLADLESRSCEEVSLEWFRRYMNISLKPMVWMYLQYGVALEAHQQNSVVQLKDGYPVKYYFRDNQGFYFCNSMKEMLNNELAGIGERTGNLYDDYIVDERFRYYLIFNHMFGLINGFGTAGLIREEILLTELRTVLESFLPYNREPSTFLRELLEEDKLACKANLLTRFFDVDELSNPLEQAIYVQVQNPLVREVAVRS
smiles,measurement,setting,value
"CCC(=O)[C@H](C)C[C@@H](C)C[C@H](C)CC[C@@H](O)C[C@@H](O)[C@@H](CC(C)C)[C@@H](O)c1cc(O)cc(O)c1 [BmcA, baulamycin A]",IC50,"E. coli (MC 1061); read-out: IDM IC50, E. coli (MC 1061)",4.2 µM
same,IC50,"E. coli (MC 1061); read-out: IRM IC50, E. coli (MC 1061)",150 µM
same,IC50,AsbA [1],180 µM
same,IC50,"S. typhimurium; read-out: IC50, S. typhimurium, iron-depleted conditions",> 1000 µM
same,IC50,"S. typhimurium; read-out: IC50, S. typhimurium, iron-rich conditions",> 1000 µM
same,IC50,"S. typhimurium; read-out: IDM IC50, S. typhimurium",> 1000 µM
same,IC50,"S. typhimurium; read-out: IRM IC50, S. typhimurium",> 1000 µM
same,IC50,"S. flexneri (BS103); read-out: IDM IC50, S. flexneri (BS103)",20 µM
same,IC50,"S. flexneri (BS103); read-out: IRM IC50, S. flexneri (BS103)",46 µM
same,IC50,"MRSA (USA 300); read-out: IDM IC50, MRSA (USA 300)",130 µM
same,IC50,"MRSA (USA 300); read-out: IRM IC50, MRSA (USA 300)",130 µM
same,IC50,"[2]; read-out: IDM IC50, B. anthracis (Sterne 34F2)",110 µM
same,IC50,"[2]; read-out: IRM IC50, B. anthracis (Sterne 34F2)",120 µM
same,IC50,SbnE [3],4.8 µM
same,inhibition against AsbB (in words),AsbB,negligible
same,IC50,AsbB,> 1000 µM
same,mode of inhibition of SbnE,SbnE [4],"reversible, competitive"
same,Ki,"SbnE [4]; read-out: Ki, SbnE, with respect to ATP",680 µM
same,Ki,"SbnE [4]; read-out: Ki, SbnE, with respect to citric acid",50 µM
same,Ki,"SbnE [4]; read-out: Ki, SbnE, with respect to polyamine substrate",210 µM
same,mode of inhibition of AsbA,AsbA [5],"reversible, competitive"
same,Ki,"AsbA [5]; read-out: Ki, AsbA, with respect to ATP",230 µM
same,Ki,"AsbA [5]; read-out: Ki, AsbA, with respect to citric acid",110 µM
same,Ki,"AsbA [5]; read-out: Ki, AsbA, with respect to polyamine substrate",170 µM
same,IC50,"S. aureus (Newman); read-out: IDM IC50, S. aureus (Newman)",69 µM
same,IC50,"S. aureus (Newman); read-out: IRM IC50, S. aureus (Newman)",86 µM
"CC(=O)[C@H](C)C[C@@H](C)C[C@H](C)CC[C@@H](O)C[C@@H](O)[C@@H](CC(C)C)[C@@H](O)c1cc(O)cc(O)c1 [BmcB, baulamycin B]",IC50,AsbA [1],200 µM
same,IC50,SbnE [3],19 µM
same,inhibition against AsbB (in words),AsbB,negligible
same,IC50,AsbB,> 1000 µM
same,potency against S. aureus (Newman) cultures compared with BmcA (in words),S. aureus (Newman),significantly less potent
